Patent US20260285850A1, “SUBSTITUTED OXAZOLIDINONES AND IMIDAZOLINONES AS HERBICIDES” (FMC CORPORATION, priority 2023, published 2026)

Assays:
Type in all cases: in vivo
kochia (Bassia scoparia) [1] = assay: Test A preemergence soil spray, visual injury rating 0-100; details: 10 days
Outline: (§1)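 Directed preemergence spray onto seeded soil or postemergence spray onto 2-10 cm plants (loam plus sand); compound carried in surfactant-containing non-phytotoxic solvent. Injury rated by eye after 10 d greenhouse growth; 0 = no effect, 100 = complete control.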

[2] = test system: ryegrass, Italian (italian ryegrass, Lolium multiflorum); assay: as above; details: 10 days
Outline: as §1

[3] = test system: wheat (Triticum aestivum); assay: as above; details: 10 days
Outline: as §1

corn (Zea mays) [4] = assay: as above; details: 10 days
Outline: as §1

[5] = test system: ragweed (common ragweed, Ambrosia artemisiifolia); assay: as above; details: 10 days
Outline: as §1

soybean (Glycine max) [6] = assay: as above; details: 10 days
Outline: as §1

[7] = test system: green foxtail (Setaria viridis); assay: as above; details: 10 days
Outline: as §1

[8] = test system: oat, wild (wild oat, Avena fatua); assay: as above; details: 10 days
Outline: as §1

[9] = test system: barnyardgrass (Echinochloa crus-galli); assay: as above; details: 10 days
Outline: as §1

[10] = test system: palmer (palmer amaranth, palmer pigweed, Amaranthus palmeri); assay: as above; details: 10 days
Outline: as §1

[11] = test system: blackgrass (Alopecurus myosuroides); assay: as above; details: 10 days
Outline: as §1

rice (Oryza sativa) = assay: Test B flooded paddy test, visual plant response rating 0-100; details: 250 g ai/ha, Flood, applied to paddy water, evaluated after 13 days
Outline: (§2)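 Plants were grown to the 2-leaf stage, then pots were flooded to 3 cm above the soil and compound was applied directly to the paddy water, with that depth kept throughout.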

[12] = test system: sedge, umbrella (small-flower umbrella sedge, Cyperus difformis); assay: as above; details: 250 g ai/ha, Flood, applied to paddy water, evaluated after 13 days
Outline: as §2

[13] = test system: ducksalad (Heteranthera limosa); assay: as above; details: 250 g ai/ha, Flood, applied to paddy water, evaluated after 13 days
Outline: as §2

[14] = test system: barnyardgrass (Echinochloa crusgalli); assay: as above; details: 250 g ai/ha, Flood, applied to paddy water, evaluated after 13 days
Outline: as §2

[15] = test system: galium (catchweed bedstraw, Galium aparine); assay: Test A postemergence application, visual injury rating 0-100; details: Postemergence, 16 g ai/ha, greenhouse 10 days; 0 no effect, 100 complete control
Outline: as §1

kochia (Bassia scoparia) [16] = assay: as above
Outline: as §1

[17] = test system: ryegrass, Italian (italian ryegrass, Lolium multiflorum); assay: as above
Outline: as §1

[18] = test system: wheat (Triticum aestivum); assay: as above
Outline: as §1

corn (Zea mays) [19] = assay: as above
Outline: as §1

[20] = test system: ragweed (common ragweed, Ambrosia artemisiifolia); assay: as above
Outline: as §1

soybean (Glycine max) [21] = assay: as above
Outline: as §1

[22] = test system: horseweed (Erigeron canadensis); assay: as above
Outline: as §1

[23] = test system: green foxtail (Setaria viridis); assay: as above
Outline: as §1

[24] = test system: oat, wild (wild oat, Avena fatua); assay: as above
Outline: as §1

[25] = test system: barnyardgrass (Echinochloa crus-galli); assay: as above
Outline: as §1

[26] = test system: palmer (palmer amaranth, palmer pigweed, Amaranthus palmeri); assay: as above
Outline: as §1

[27] = test system: blackgrass (Alopecurus myosuroides); assay: as above
Outline: as §1

[28] = 62 g ai/ha, 0 = no effect, 100 = complete control
[29] = 62 g ai/ha, postemergence, 10 days, 0 = no effect, 100 = complete control
[30] = Postemergence, 16 g ai/ha, greenhouse 10 days, 0 no effect, 100 complete control

CC1(C(=O)NC2CC=C(C(=O)NS(=O)(=O)C3CC3)C2)CN(c2cc(F)cc(F)c2)C(=O)O1 (racemic) [Compound 90]
Kochia plant response rating (kochia (Bassia scoparia) [1]; 16 g ai/ha, 0 to 100 scale): 0 | Kochia plant response rating (0-100) (kochia (Bassia scoparia) [1]; [28]): 0 | Ryegrass, Italian plant response rating ([2]; 16 g ai/ha, 0 to 100 scale): 0 | Ryegrass, Italian plant response rating (0-100) [2, 28]: 0 | Wheat plant response rating ([3]; 16 g ai/ha, 0 to 100 scale): 0 | Wheat plant response rating (0-100) [3, 28]: 0 | Corn plant response rating (corn (Zea mays) [4]; 16 g ai/ha, 0 to 100 scale): 0 | Corn plant response rating (0-100) (corn (Zea mays) [4]; [28]): 0 | Ragweed plant response rating ([5]; 16 g ai/ha, 0 to 100 scale): 0 | Ragweed plant response rating (0-100) [5, 28]: 0 | Soybean plant response rating (soybean (Glycine max) [6]; 16 g ai/ha, 0 to 100 scale): 0 | Soybean plant response rating (0-100) (soybean (Glycine max) [6]; [28]): 10 | Foxtail, Green plant response rating ([7]; 16 g ai/ha, 0 to 100 scale): 0 | Foxtail, Green plant response rating (0-100) [7, 28]: 10 | Oat, Wild plant response rating ([8]; 16 g ai/ha, 0 to 100 scale): 0 | Oat, Wild plant response rating (0-100) [8, 28]: 0 | Barnyardgrass plant response rating ([9]; 16 g ai/ha, 0 to 100 scale): 0 | Barnyardgrass plant response rating (0-100) [9, 28]: 0 | Pigweed, Palmer plant response rating ([10]; 16 g ai/ha, 0 to 100 scale): 10 | Pigweed, Palmer plant response rating (0-100) [10, 28]: 20 | Blackgrass plant response rating ([11]; 16 g ai/ha, 0 to 100 scale): 0 | Blackgrass plant response rating (0-100) [11, 28]: 0 | Plant response rating, Rice (0 to 100 scale, 0 is no effect and 100 is complete control) (rice (Oryza sativa)): 0 | Plant response rating, Sedge, Umbrella (0 to 100 scale, 0 is no effect and 100 is complete control) [12]: 0 | Plant response rating, Ducksalad (0 to 100 scale, 0 is no effect and 100 is complete control) [13]: 0 | Plant response rating, Barnyardgrass (0 to 100 scale, 0 is no effect and 100 is complete control) [14]: 0 | Galium plant response rating (0 to 100 scale) [15]: 40 | Kochia plant response rating (0-100) (kochia (Bassia scoparia) [16]; [29]): 80 | Kochia plant response rating (0 to 100 scale) (kochia (Bassia scoparia) [16]; [30]): 70 | Ryegrass, Italian plant response rating (0-100) [17, 29]: 70 | Ryegrass, Italian plant response rating (0 to 100 scale) [17, 30]: 20 | Wheat plant response rating (0-100) [18, 29]: 70 | Wheat plant response rating (0 to 100 scale) [18, 30]: 40 | Corn plant response rating (0-100) (corn (Zea mays) [19]; [29]): 100 | Corn plant response rating (0 to 100 scale) (corn (Zea mays) [19]; [30]): 30 | Ragweed plant response rating (0-100) [20, 29]: 30 | Ragweed plant response rating (0 to 100 scale) [20, 30]: 0 | Soybean plant response rating (0-100) (soybean (Glycine max) [21]; [29]): 40 | Soybean plant response rating (0 to 100 scale) (soybean (Glycine max) [21]; [30]): 30 | Horseweed plant response rating (0-100) [22, 29]: 60 | Horseweed plant response rating (0 to 100 scale) [22, 30]: 0 | Foxtail, Green plant response rating (0-100) [23, 29]: 80 | Foxtail, Green plant response rating (0 to 100 scale) [23, 30]: 0 | Oat, Wild plant response rating (0-100) [24, 29]: 50 | Oat, Wild plant response rating (0 to 100 scale) [24, 30]: 20 | Barnyardgrass plant response rating (0-100) [25, 29]: 90 | Barnyardgrass plant response rating (0 to 100 scale) [25, 30]: 30 | Pigweed, Palmer plant response rating (0-100) [26, 29]: 70 | Pigweed, Palmer plant response rating (0 to 100 scale) [26, 30]: 0 | Blackgrass plant response rating (0-100) [27, 29]: 80 | Blackgrass plant response rating (0 to 100 scale) [27, 30]: 10
